Values after ≈ are worked out from the molar mass of the structure shown. Read-outs that look alike come from different tables or passages of the source. Where a SMILES comes first, the peptide text is derived from it. Bridges are numbered along the chain shown (N, C = ends). Roman numbers before positions name the chains, in order. [ ]: non-standard residue; d: D form. βAla = NCCC(=O)O
How the values were obtained:
[1] = molecular target: T1, EphA2 extracellular domain fused to Fc (EphA2-Fc) (Homo sapiens, UniProt P29317); assay: ELISA: inhibition of ephrinA5-AP binding to immobilized EphA2-Fc
T1 construct: immobilized EphA2 extracellular domain fused to the Fc portion of an antibody (EphA2-Fc)
T1 sequence (P29317 24-537 limits assumed): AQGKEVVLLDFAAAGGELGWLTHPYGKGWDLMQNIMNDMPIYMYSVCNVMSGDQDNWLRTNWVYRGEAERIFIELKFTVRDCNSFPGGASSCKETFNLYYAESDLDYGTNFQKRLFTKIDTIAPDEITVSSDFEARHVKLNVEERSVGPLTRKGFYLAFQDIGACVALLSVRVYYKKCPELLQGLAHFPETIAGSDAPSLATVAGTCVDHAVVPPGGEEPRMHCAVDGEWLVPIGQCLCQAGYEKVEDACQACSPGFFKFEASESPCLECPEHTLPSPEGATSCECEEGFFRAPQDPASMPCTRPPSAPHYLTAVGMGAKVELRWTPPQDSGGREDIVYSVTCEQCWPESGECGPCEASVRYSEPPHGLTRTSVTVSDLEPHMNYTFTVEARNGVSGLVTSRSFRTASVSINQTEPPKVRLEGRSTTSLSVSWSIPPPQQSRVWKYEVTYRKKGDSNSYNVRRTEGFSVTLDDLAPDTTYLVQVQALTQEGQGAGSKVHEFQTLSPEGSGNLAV
Description: FIG. 1A-1C illustrates an example of Potency and selectivity of EphA2-targeting dimeric peptides. (FIG. 1A) ELISAs comparing the ability of the peptides to inhibit binding of ephrin-A5 fused to alkaline phosphatase (ephrinA5-AP) to the immobilized EphA2 extracellular domain fused to the Fc portion of an antibody (EphA2-Fc). The graphs show averages ±SD from triplicate measurements from a representative experiment. IC50 values calculated from the fitted curves in each experiment are shown. Averages of IC50 values obtained from multiple experiments are shown in panel FIG. 1B and Table 3. The 10 nM peptide concentration is outlined in red. (FIG. 1B) Plot of the average IC50 values (listed in Table 3) for different ligands. […] (FIG. 1C) EphrinA5-AP binding to EphA receptors and ephrinB2-AP binding to EphB receptors in the presence of dimeric peptides representing each of the three configurations. Values are normalized to ephrin binding without peptide. The graphs show averages and SDs from triplicate measurements (with each measurement shown as a dot).

[2] = Peptide solubility in PBS/H2O/DMSO; type: physicochemical
Experimental: Peptide identity and purity are documented by mass spectrometry and high-performance liquid chromatography (HPLC). The peptide solubility values are determined. Concentrated peptide stocks are prepared in DMSO or H2O and stored frozen at −80° C.

EphA2 LBD = molecular target: T2, EphA2 LBD (Homo sapiens, UniProt P29317); assay: Isothermal titration calorimetry (ITC) with soluble EphA2 LBD; type: binding
T2 construct: made in house; host or cells: E. coli Origami 2(DE3)
T2 sequence (P29317 28-200): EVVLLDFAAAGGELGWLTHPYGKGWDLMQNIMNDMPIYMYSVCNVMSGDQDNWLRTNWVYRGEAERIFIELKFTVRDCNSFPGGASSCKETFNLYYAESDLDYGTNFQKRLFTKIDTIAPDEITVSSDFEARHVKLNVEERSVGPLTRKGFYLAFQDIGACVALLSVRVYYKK
Experimental: (FIG. 10A-10E) The EphA2 LBD was titrated at 200-250 μM into 10-12.5 μM of the indicated peptide.
For ITC, all peptides are dissolved in DMSO and both the EphA2 LBD and the peptides are diluted to obtain a final buffer containing 9.5 mM HEPES, pH 7.9, 95 mM NaCl, and 5% DMSO. The experiments are carried out at 296 K (23° C.) using an ITC200 calorimeter (Microcal). Two-microliter aliquots of a peptide solution are injected into the cell containing 205 μL EphA2 LBD. 200-400 μM peptides are titrated into 20-40 μM EphA2 LBD. Experimental data are analyzed using the Origin software package (Microcal). The integrated values for the reaction heats are normalized to the amount of injected peptide after blank subtraction.

EphA2 = EphA2 (Homo sapiens, UniProt P29317); assay: EphA2 autophosphorylation on tyrosine 588 in PC3 cells (immunoblot dose-response); type: cell-based; design: EphA2 is the prevalent endogenously expressed EphA receptor in these cells; endogenous in cells; host or cells: PC3 prostate cancer cells; conditions: read-out: EC50 PY588
EphA2, sequence (P29317 24-976): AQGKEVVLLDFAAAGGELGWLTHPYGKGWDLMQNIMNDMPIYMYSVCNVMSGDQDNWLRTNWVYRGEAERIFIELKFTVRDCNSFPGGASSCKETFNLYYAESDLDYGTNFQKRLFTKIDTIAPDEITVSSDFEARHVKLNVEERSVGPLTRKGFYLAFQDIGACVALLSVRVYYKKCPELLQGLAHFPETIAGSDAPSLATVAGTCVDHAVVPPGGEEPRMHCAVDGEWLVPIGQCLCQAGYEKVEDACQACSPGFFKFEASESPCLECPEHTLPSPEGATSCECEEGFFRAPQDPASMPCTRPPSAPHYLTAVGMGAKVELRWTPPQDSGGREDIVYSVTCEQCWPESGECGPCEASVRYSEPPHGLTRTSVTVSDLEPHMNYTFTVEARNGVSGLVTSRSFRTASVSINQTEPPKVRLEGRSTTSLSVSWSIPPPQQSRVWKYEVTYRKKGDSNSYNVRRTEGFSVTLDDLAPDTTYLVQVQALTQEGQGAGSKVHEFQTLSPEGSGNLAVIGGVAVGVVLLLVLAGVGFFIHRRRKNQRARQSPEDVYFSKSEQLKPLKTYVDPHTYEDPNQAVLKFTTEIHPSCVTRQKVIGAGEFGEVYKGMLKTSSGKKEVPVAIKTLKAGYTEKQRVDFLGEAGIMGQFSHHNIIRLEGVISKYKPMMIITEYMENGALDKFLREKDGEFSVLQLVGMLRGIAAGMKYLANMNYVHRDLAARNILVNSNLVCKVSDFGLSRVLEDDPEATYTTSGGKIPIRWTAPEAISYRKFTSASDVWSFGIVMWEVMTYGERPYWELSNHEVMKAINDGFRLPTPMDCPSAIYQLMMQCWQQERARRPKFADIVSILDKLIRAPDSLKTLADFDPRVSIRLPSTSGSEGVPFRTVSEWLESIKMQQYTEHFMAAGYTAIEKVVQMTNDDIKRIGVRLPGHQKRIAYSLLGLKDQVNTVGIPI
Experimental: (FIG. 2A) Dose-response curves for EphA2 autophosphorylation on tyrosine 588 (pY588; purple) and for downstream inhibition of AKT phosphorylation (magenta). PC3 cells were treated for 15 min with different concentrations of the indicated peptides. […] The graphs show quantifications from multiple blots (averages ±SE; the number of experiments used to generate each curve is shown in Table 3). […] (FIG. 2B) Examples of immunoblots of lysates from PC3 cells treated with the indicated concentrations of representative ligands. […] A white vertical line indicates removal of irrelevant lanes. […] The bars show averages ±SE, and the individual measurements are shown as black dots. […] Plots of Etop versus EC50 for pY588 in FIG. 2D and for pAKT inh in FIG. 2E. Averages ±SE are shown for the peptides and ephrinA1.
To examine the agonistic properties of the different dimeric peptide ligands, EphA2 autophosphorylation on tyrosine 588 (Y588) was measured, which is indicative of receptor activation and mediates binding of SH2 domain-containing proteins that link EphA2 to various downstream signaling pathways (FIG. 7). For these experiments, PC3 prostate cancer cells were stimulated with the dimeric peptides because EphA2 is the prevalent endogenously expressed EphA receptor in these cells, allowing comparisons with ephrins.

[3] = DMSO, third of PBS/H2O/DMSO, read-out: Solubility in DMSO
[4] = H2O, Table 4, second of PBS/H20/DMSO, read-out: Solubility in H20
[5] = H2O, second of PBS/H2O/DMSO, read-out: Solubility in H2O
[6] = PBS, first of PBS/H2O/DMSO, read-out: Solubility in PBS
[7] = Table 3, inhibition of EphA2-ephrinA5 interaction, averages ± SD, read-out: ICsa (nM) by ELISA
[8] = DMSO, Table 4, third of PBS/H20/DMSO, read-out: Solubility in DMSO
[9] = PBS, Table 4, first of PBS/H20/DMSO, read-out: Solubility in PBS

Compound | ICsa (nM) by ELISA ([1]; Table 3, inhibition of EphA2-ephrinA5 interaction, averages ± SD) | solubility [2, 3] [µg/mL] | solubility [2, 4] [µg/mL] | solubility [2, 5] [µg/mL] | solubility [2, 6] [µg/mL] | IC50 [1, 7] [nM] | solubility [2, 8] [µg/mL] | solubility [2, 9] [µg/mL] | binding to the EphA2 LBD by ITC (EphA2 LBD; high biotin concentration (1 mM)) | EC50 (EphA2) [nM] | IC50 ([1]; inhibition of ephrin-A5 binding to EphA2, number of experiments in parentheses, read-out: Inc50 (nM) by ELISA) [nM] | Kd (EphA2 LBD) [nM] | solubility ([2]; water, Table 4, second of PBS/H20/DMSO, read-out: Solubility in H20) [µg/mL]
CC(C)C[C@H](NC(=O)[C@H](Cc1c[nH]c2ccccc12)NC(=O)CCN)C(=O)N[C@@H](C)C(=O)N[C@@H](Cc1ccc(O)cc1)C(=O)N1CCC[C@H]1C(=O)N[C@@H](CC(=O)O)C(=O)N[C@@H](CO)C(=O)N[C@H](C(=O)N1CCC[C@H]1C(=O)N[C@@H](Cc1ccc(O)cc1)C(=O)N[C@@H](CCCNC(=N)N)C(=O)N1CCC[C@H]1C(=O)N[C@@H](CCCCN)C(=O)NCC(=O)NCC(=O)N[C@@H](C)C(=O)N[C@@H](Cc1c[nH]c2ccccc12)C(=O)N[C@@H](CC(C)C)C(=O)N[C@@H](C)C(=O)N[C@@H](Cc1ccc(O)cc1)C(=O)N1CCC[C@H]1C(=O)N[C@@H](CC(=O)O)C(=O)N[C@@H](CO)C(=O)N[C@H](C(=O)N1CCC[C@H]1C(=O)N[C@@H](Cc1ccc(O)cc1)C(=O)N[C@@H](CCCNC(=N)N)C(=O)N1CCC[C@H]1C(=O)N[C@@H](CCCCN)C(N)=O)C(C)C)C(C)C [compound 8, linear dimer (head-to-tail)] (H-[βAla]WLAYPDSVPYRPKGGAWLAYPDSVPYRPK-NH2; N-terminus assumed) | subnanomolar | 10000 (≈ 2920 µM) | 5000 (≈ 1460 µM) | 5000 (≈ 1460 µM) | 1000 (≈ 292 µM) | – | – | – | – | – | – | – | –
CC(C)C[C@H](NC(=O)[C@H](Cc1c[nH]c2ccccc12)NC(=O)CCN)C(=O)N[C@@H](C)C(=O)N[C@@H](Cc1ccc(O)cc1)C(=O)N1CCC[C@H]1C(=O)N[C@@H](CC(=O)O)C(=O)N[C@@H](CO)C(=O)N[C@H](C(=O)N1CCC[C@H]1C(=O)N[C@@H](Cc1ccc(O)cc1)C(=O)N[C@@H](CCCNC(=N)N)C(=O)N1CCC[C@H]1C(=O)N[C@@H](CCCCN)C(=O)NCCCC[C@H](NC(=O)[C@H](CCCCN)NC(=O)[C@@H]1CCCN1C(=O)[C@H](CCCNC(=N)N)NC(=O)[C@H](Cc1ccc(O)cc1)NC(=O)[C@@H]1CCCN1C(=O)[C@@H](NC(=O)[C@H](CO)NC(=O)[C@H](CC(=O)O)NC(=O)[C@@H]1CCCN1C(=O)[C@H](Cc1ccc(O)cc1)NC(=O)[C@H](C)NC(=O)[C@H](CC(C)C)NC(=O)[C@H](Cc1c[nH]c2ccccc12)NC(=O)CCN)C(C)C)C(=O)O)C(C)C [compound 3] | – | – | 5000 (≈ 1460 µM) | – | – | 0.77 | 10000 (≈ 2910 µM) | < 100 | – | – | – | – | –
O=C(O)CCCC[C@@H]1SC[C@@H]2NC(=O)N[C@@H]21 [free biotin, biotin, reference compound] | – | – | – | – | – | – | – | – | did not detect binding | – | – | – | –
CC(C)C[C@H](NC(=O)[C@H](Cc1c[nH]c2ccccc12)NC(=O)[C@H](C)NC(=O)CNC(=O)[C@@H](N)Cc1cn(CCCC[C@H](N)C(=O)N[C@@H](C)C(=O)N[C@@H](Cc2c[nH]c3ccccc23)C(=O)N[C@@H](CC(C)C)C(=O)N[C@@H](C)C(=O)N[C@@H](Cc2ccc(O)cc2)C(=O)N2CCC[C@H]2C(=O)N[C@@H](CC(=O)O)C(=O)N[C@@H](CO)C(=O)N[C@H](C(=O)N2CCC[C@H]2C(=O)N[C@@H](Cc2ccc(O)cc2)C(=O)N[C@@H](CCCNC(=N)N)C(=O)N2CCC[C@H]2C(=O)N[C@@H](CCCCN)C(N)=O)C(C)C)nn1)C(=O)N[C@@H](C)C(=O)N[C@@H](Cc1ccc(O)cc1)C(=O)N1CCC[C@H]1C(=O)N[C@@H](CC(=O)O)C(=O)N[C@@H](CO)C(=O)N[C@H](C(=O)N1CCC[C@H]1C(=O)N[C@@H](Cc1ccc(O)cc1)C(=O)N[C@@H](CCCNC(=N)N)C(=O)N1CCC[C@H]1C(=O)N[C@@H](CCCCN)C(N)=O)C(C)C [compound 7] | – | 10000 (≈ 2750 µM) | 5000 (≈ 1380 µM) | 5000 (≈ 1380 µM) | < 100 | 0.54 | – | 1000 (≈ 275 µM) | – | 0.22 ± 0.04 | – | – | –
CC(C)C[C@H](NC(=O)[C@H](Cc1c[nH]c2ccccc12)NC(=O)[C@H](C)NC(=O)CNC(=O)[C@@H](N)CSSC[C@H](N)C(=O)NCC(=O)N[C@@H](C)C(=O)N[C@@H](Cc1c[nH]c2ccccc12)C(=O)N[C@@H](CC(C)C)C(=O)N[C@@H](C)C(=O)N[C@@H](Cc1ccc(O)cc1)C(=O)N1CCC[C@H]1C(=O)N[C@@H](CC(=O)O)C(=O)N[C@@H](CO)C(=O)N[C@H](C(=O)N1CCC[C@H]1C(=O)N[C@@H](Cc1ccc(O)cc1)C(=O)N[C@@H](CCCNC(=N)N)C(=O)O)C(C)C)C(=O)N[C@@H](C)C(=O)N[C@@H](Cc1ccc(O)cc1)C(=O)N1CCC[C@H]1C(=O)N[C@@H](CC(=O)O)C(=O)N[C@@H](CO)C(=O)N[C@H](C(=O)N1CCC[C@H]1C(=O)N[C@@H](Cc1ccc(O)cc1)C(=O)N[C@@H](CCCNC(=N)N)C(=O)O)C(C)C [compound 4] (I: H-CGAWLAYPDSVPYR-OH / II: H-CGAWLAYPDSVPYR-OH; disulfide I:1-II:1; C-terminus assumed) | – | 10000 (≈ 3130 µM) | – | < 100 | < 100 | – | 10000 (≈ 3130 µM) | < 100 | – | – | 7.9 ± 1.9 | 104 ± 1 | < 100

— US20230391826A1, “COMPOSITIONS AND METHODS FOR TREATING DISEASES” (Sanford Burnham Prebys Medical Discovery Institute, priority 2020, published 2023)
